# Source: patent US20260083722A1, “BIFUNCTIONAL DEGRADERS COMPRISING ELECTROPHILIC PROTACS THAT ENGAGE DCAF1 AND PHARMACEUTICAL COMPOSITIONS COMPRISING THE SAME” (THE SCRIPPS RESEARCH INSTITUTE, priority 2022, published 2026)
# Target: T1, HA-FKBP12 (Homo sapiens, UniProt P62942)
# T1 construct: expressed in transfected cells; host or cells: HEK293T
# Test: ubiquitination of immunoprecipitated HA-FKBP12 in HEK293T cells
# Type: cell-based
# Protocol: (A) Left, western blots showing effects of YT47R and YT47S on the immunoprecipitation (IP) of FLAG-DCAF1-WT or FLAG-DCAF1-C1113A with HA-FKBP12 in HEK293T cells co-expressing these proteins. Cells were treated with YT47R or YT47S (5 μM) for 2 h in the presence of MG132 (10 μM) prior to lysis and IP with an anti-HA antibody and western blotting for the indicated proteins (DCAF1, FKBP12, and ubiquitinated protein). Right, bar graphs quantifying DCAF1 (top) and ubiquitination (Ub) (bottom) in the indicated IP groups. (B) Left, western blots showing effects of YT47R and YT47S on the IP of endogenous DCAF1 with HA-FKBP12 in HEK293T cells expressing HA-FKBP12. […] Right, bar graph quantifying DCAF1 in the indicated IP groups. […] Statistical significance was calculated with unpaired two-tailed Student's t-tests comparing YT41R/YT47R- and DMSO-treated cells. **P<0.01, ****P<0.0001. (C) MS-ABPP quantification of IA-DTB labeling of the indicated cysteines in DCAF1 from FLAG-DCAF1-WT-expressing HEK293T cells treated with the indicated concentrations of YT47R (3 h) relative to cells treated with DMSO. […] Statistical significance was calculated with unpaired two-tailed Student's t-tests comparing compound to DMSO treated cells. *P<0.1. […]
# T1 sequence (P62942 whole entry): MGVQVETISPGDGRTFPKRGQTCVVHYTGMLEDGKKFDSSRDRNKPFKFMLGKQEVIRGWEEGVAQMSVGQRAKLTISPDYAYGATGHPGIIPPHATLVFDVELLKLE
compound,measurement,setting,value
C=CC(=O)N1C[C@H](c2ccc(C(=O)NCCOCCOCCOCCNC(=O)COc3cccc([C@@H](CCc4ccc(OC)c(OC)c4)OC(=O)[C@@H]4CCCCN4C(=O)C(=O)C(C)(C)CC)c3)cc2)[C@@H]1C(=O)Nc1cccc2cccnc12 [YT47R],polyubiquitination of immunoprecipitated HA-FKBP12,"DCAF1-WT-expressing cells, 5 μM, 2 h, MG132",robust polyubiquitination
same,FKBP12 ubiquitination,"HEK293T cells that did not express exogenous DCAF1, versus YT47S",increased FKBP12 ubiquitination
